Reference: patent US20180078602A1, “METHODS AND COMPOSITIONS FOR EXTENDING THE EFFICACY OF PHOSPHODIESTERASE INHIBITORS FOR TREATING ERECTILE DYSFUNCTION, AND COMPOSITIONS FOR INHIBITING THE ONSET AND SLOWING THE PROGRESSION OF ERECTILE DYSFUNCTION” (K.L.R.M., LLC, priority 2015, published 2018)

How the values were obtained:
desmin = test: Desmin immunohistochemistry (smooth muscle cell content); type: in vivo, rat; details: treatment 2 months; with respect to 12 month-old non-treated controls
Description: (§1) Middle aged 10 month-old Fisher 344 rats (Harlan Sprague-Dawley, San Diego, Calif.) were divided in 4 groups and treated daily for two months as follows: • a) Control: 12 month-old at the time of death receiving by retrolingual administration vehicle only composed of 10% dimethyl sulfoxide, peanut butter and water (12 month); • b) Composition 4 (COMP 4): a combination of Muira Puama (45 mg/Kg B.W), Paullinia cupana (45 mg/Kg B.W), ginger (45 mg/Kg B.W) and […]) dissolved in vehicle; • c) Tadalafil (TAD): 2.5 mg/Kg B.W tadalafil dissolved in vehicle; • d) Composition 4+Tadalafil (COMP4+TAD): A combination of b and c at the same doses. Histochemistry and Immunohistochemistry. […] Quantitative Image Analysis was performed by computerized densitometry using ImagePro 7.1 software (Media Cybernetics, Silver Spring, Md.), coupled to an Olympus BHS microscope equipped with a Retiga digital camera. For Masson staining, 40× magnification pictures of the penis comprising half of the corpora cavernosa were analyzed for smooth muscle (stained in red) and collagen areas (stained in blue) excluding the sinusoidal spaces, and expressed as the smooth muscle/collagen ratio. For desmin and iNOS staining, 200× magnification pictures of the corpora cavernosa were analyzed in a computerized grid and expressed as a percentage of positive area versus total area of the corpora cavernosa. […]

[1] = system: rat corpora cavernosa smooth muscle/collagen; test: Masson trichrome staining, smooth muscle/collagen ratio by quantitative image analysis; type: in vivo; details: daily oral treatment 2 months; compared to 12 month-old control animals
Description: as §1

## CN1CC(=O)N2[C@H](c3ccc4c(c3)OCO4)c3[nH]c4ccccc4c3C[C@@H]2C1=O [tadalafil]
desmin
  increase in desmin expression: 38%
[1]
  improvement of SMC/collagen ratio: 60%
